Data taken from US12655116B2, “Substituted isophthalic acid diamides” (Bayer Aktiengesellschaft, priority 2020, dated 2026).

Assays:
AMARE [1] = test: Pre-emergence herbicidal action against AMARE; type: in vivo, Amaranthus retroflexus
Summary of the method: (§1)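 Greenhouse pots of sandy loam held seeds covered with soil, onto which the compound was applied before emergence. An aqueous suspension or emulsion of WP or EC was used at 600 to 800 l/ha with 0.2% wetting agent. Percent damage was judged visually at 3 weeks.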

SETVI [2] = test: Post-emergence herbicidal action against SETVI; type: in vivo, Setaria viridis
Summary of the method: (§2)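 A WP or EC formulation diluted in water with 0.2% wetting agent was sprayed at 600 to 800 l/ha onto one-leaf-stage plants grown in sandy loam. About 3 weeks later, action was rated visually in percent, 100% being dead plants.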

ABUTH [3] = test: Post-emergence herbicidal action against ABUTH; type: in vivo, Abutilon theophrasti; conditions: visual assessment about 3 weeks after treatment vs untreated controls
Summary of the method: as §2

VIOTR [4] = test: Post-emergence herbicidal action against VIOTR; type: in vivo, Viola tricolor
Summary of the method: as §2

ABUTH [5] = test: Pre-emergence herbicidal action against ABUTH; type: in vivo, Abutilon theophrasti; conditions: for Pre-emergence action against ABUTH (herbicidal activity): 80 g/ha, scored visually after 3 weeks vs untreated controls (100% = plants have died, 0% = like control plants); for Pre-emergence action against ABUTH (herbicidal activity in percent): dosage 20 g/ha, scored visually after 3 weeks vs untreated controls, 100% = plants have died, 0% = like control plants
Summary of the method: as §1

PHBPU [6] = test: Post-emergence herbicidal action against PHBPU; type: in vivo, Pharbitis purpurea; conditions: dosage 20 g/ha
Summary of the method: as §2

MATIN [7] = test: Post-emergence herbicidal action against MATIN; type: in vivo, Matricaria inodora
Summary of the method: as §2

DIGSA [8] = test: Pre-emergence herbicidal action against DIGSA; type: in vivo, Digitaria sanguinalis
Summary of the method: as §1

POLCO = test: Pre-emergence herbicidal action against POLCO; type: in vivo, Polygonum convolvulus; conditions: dosage 80 g/ha
Summary of the method: as §1

ECHCG [9] = test: Pre-emergence herbicidal action against ECHCG; type: in vivo, Echinochloa crus-galli; conditions: 80 g/ha
Summary of the method: as §1

PHBPU [10] = test: Pre-emergence herbicidal action against PHBPU; type: in vivo, Pharbitis purpurea; conditions: dosage 80 g/ha
Summary of the method: as §1

DIGSA [11] = test: Post-emergence herbicidal action against DIGSA; type: in vivo, Digitaria sanguinalis
Summary of the method: as §2

ECHCG [12] = test: Post-emergence herbicidal action against ECHCG; type: in vivo, Echinochloa crus-galli
Summary of the method: as §2

VERPE [13] = test: Pre-emergence herbicidal action against VERPE; type: in vivo, Veronica persica
Summary of the method: as §1

VERPE [14] = test: Post-emergence herbicidal action against VERPE; type: in vivo, Veronica persica
Summary of the method: as §2

VIOTR [15] = test: Pre-emergence herbicidal action against VIOTR; type: in vivo, Viola tricolor
Summary of the method: as §1

AMARE [16] = test: Post-emergence herbicidal action against AMARE; type: in vivo, Amaranthus retroflexus; conditions: 20 g/ha, visual assessment about 3 weeks after treatment, 100% = plants have died, 0% = like control plants
Summary of the method: as §2

SETVI [17] = test: Pre-emergence herbicidal action against SETVI; type: in vivo, Setaria viridis; conditions: dosage 80 g/ha
Summary of the method: as §1

MATIN [18] = test: Pre-emergence herbicidal action against MATIN; type: in vivo, Matricaria inodora
Summary of the method: as §1

ALOMY = test: Pre-emergence herbicidal action against ALOMY; type: in vivo, Alopecurus myosuroides; conditions: 80 g/ha, pre-emergence, scored visually after 3 weeks vs untreated controls (100% = plants have died, 0% = like control plants)
Summary of the method: as §1

AVEFA = test: Pre-emergence herbicidal action against AVEFA; type: in vivo, Avena fatua; conditions: 80 g/ha, pre-emergence
Summary of the method: as §1

[19] = 20 g/ha, scored visually after 3 weeks vs untreated controls, 100% = plants have died, 0% = like control plants
[20] = 80 g/ha, scored visually after 3 weeks vs untreated controls (100% = plants have died, 0% = like control plants)

CCc1c(C(=O)Nc2nnnn2CC)ccc(C(F)F)c1C(=O)NC [Example 2-277]
90%: Post-emergence action against SETVI in % (SETVI [2]; dosage 5 g/ha) | Post-emergence action against SETVI in % (SETVI [2]; dosage 20 g/ha) | Post-emergence action against ABUTH in % (ABUTH [3]; dosage 20 g/ha) | Post-emergence action against VIOTR in % (VIOTR [4]; 5 g/ha) | Post-emergence action against VIOTR in % (VIOTR [4]; 20 g/ha) | Pre-emergence action against ABUTH (herbicidal activity in percent) (ABUTH [5]) | Post-emergence action against PHBPU in % (PHBPU [6]) | Post-emergence action against MATIN in % (MATIN [7]; dosage 5 g/ha) | Post-emergence action against MATIN in % (MATIN [7]; dosage 20 g/ha) | Pre-emergence action against DIGSA in % (DIGSA [8]; dosage 20 g/ha) | Pre-emergence action against POLCO in % (POLCO) | Pre-emergence action against ECHCG in % (ECHCG [9]) | Post-emergence action against DIGSA in % (DIGSA [11]; 5 g/ha) | Post-emergence action against DIGSA (DIGSA [11]; 20 g/ha) | Post-emergence action against VERPE in % (VERPE [14]; 20 g/ha) | Post-emergence action at 20 g/ha against AMARE in % (AMARE [16]) | Pre-emergence action against MATIN in % (MATIN [18]; dosage 20 g/ha)
100%: Pre-emergence action against AMARE in % (AMARE [1]; [19]) | Pre-emergence action against AMARE in % (AMARE [1]; [20]) | Pre-emergence action against ABUTH (herbicidal activity) (ABUTH [5]) | Pre-emergence action against DIGSA in % (DIGSA [8]; dosage 80 g/ha) | Post-emergence action against ECHCG in % (ECHCG [12]; dosage 20 g/ha) | Pre-emergence action against VERPE in % (VERPE [13]; dosage 80 g/ha) | Pre-emergence action against VIOTR in % (VIOTR [15]; dosage 20 g/ha) | Pre-emergence action against VIOTR in % (VIOTR [15]; dosage 80 g/ha) | Pre-emergence action against MATIN in % (MATIN [18]; dosage 80 g/ha)
80%: Post-emergence action against ABUTH in % (ABUTH [3]; dosage 5 g/ha) | Pre-emergence action against PHBPU in % (PHBPU [10]) | Post-emergence action against VERPE in % (VERPE [14]; 5 g/ha) | Pre-emergence action against SETVI in % (SETVI [17])

CCNC(=O)c1c(C(F)F)ccc(C(=O)Nc2nnnn2CC)c1OC [Example 2-73]
80%: Post-emergence action against ABUTH in % (ABUTH [3]; dosage 5 g/ha) | Post-emergence action against ABUTH in % (ABUTH [3]; dosage 20 g/ha) | Post-emergence action against PHBPU in % (PHBPU [6]) | Post-emergence action against MATIN in % (MATIN [7]; dosage 5 g/ha) | Post-emergence action against MATIN in % (MATIN [7]; dosage 20 g/ha) | Pre-emergence action against POLCO in % (POLCO) | Pre-emergence action against PHBPU in % (PHBPU [10]) | Post-emergence action against ECHCG in % (ECHCG [12]; dosage 5 g/ha) | Post-emergence action against ECHCG in % (ECHCG [12]; dosage 20 g/ha) | Pre-emergence action against AVEFA in % (AVEFA) | Post-emergence action against VERPE in % (VERPE [14]; 5 g/ha)
90%: Pre-emergence action against DIGSA in % (DIGSA [8]; dosage 20 g/ha) | Pre-emergence action against VERPE in % (VERPE [13]; dosage 20 g/ha) | Pre-emergence action against VERPE in % (VERPE [13]; dosage 80 g/ha) | Post-emergence action against VERPE in % (VERPE [14]; 20 g/ha) | Pre-emergence action against VIOTR in % (VIOTR [15]; dosage 20 g/ha)
100%: Pre-emergence action against AMARE in % (AMARE [1]; [19]) | Pre-emergence action against AMARE in % (AMARE [1]; [20]) | Post-emergence action against SETVI in % (SETVI [2]; dosage 20 g/ha) | Post-emergence action against VIOTR in % (VIOTR [4]; 20 g/ha) | Pre-emergence action against ABUTH (herbicidal activity) (ABUTH [5]) | Pre-emergence action against ABUTH (herbicidal activity in percent) (ABUTH [5]) | Pre-emergence action against DIGSA in % (DIGSA [8]; dosage 80 g/ha) | Pre-emergence action against ALOMY (herbicidal activity) (ALOMY) | Pre-emergence action against ECHCG in % (ECHCG [9]) | Pre-emergence action against VIOTR in % (VIOTR [15]; dosage 80 g/ha) | Pre-emergence action against SETVI in % (SETVI [17]) | Pre-emergence action against MATIN in % (MATIN [18]; dosage 20 g/ha) | Pre-emergence action against MATIN in % (MATIN [18]; dosage 80 g/ha)
